# Values quoted from earlier work as cited in patent US20170151152A1, “COMBINATION OF N-ACETYL GLUCOSAMINE WITH ABSCISIC ACID AND USES THEREOF” (priority 2015, published 2017).
# Tested on: cell cultures
# Conditions: 1%, 3%, 5% of 30 μL of NAG
structure (smiles),measurement,value
"CC(=O)N[C@H]1C(O)O[C@H](CO)[C@@H](O)[C@@H]1O (stereo partly shown) [NAG, N-acetyl glucosamine]",melanin in cell cultures,dose dependent decrease in melanin
